{
  "source": "patent US20090114877A1",
  "about": "“Composition Containing Stability-Improved Chloromethyl Phosphate Derivatve and Process for Producing Same” (Eisai R&D Management Co., Ltd., priority 2005, published 2009)",
  "assay": "Evaluation of storage stability (P-NMR integration values before and after storage)",
  "method": "Note that evaluation of storage stability can be carried out by calculation of peak area derived from Compound (6) by high performance liquid chromatography or calculation of integration value by P-NMR measurement before and after storage.\nUsing the resulting di-tert-butyl chlorophosphate, N-methylmorpholine (NMM) and N,N-diisopropyl ethylamine (iPr2EtN) were added at given concentrations as tertiary amines, prior to concentrating the organic layer containing the phosphate. Then, after storing at a temperature of 40° C. for 3 hours (3 hr) or 6 hours (6 hr), integration values of di-tert-butyl chlorophosphate before and after storage were measured by P-NMR measurements. Note that the storage test at 40° C. was carried out using EYELA ChemStation (temperature accuracy of ±1° C.) as thermoregulated bath.",
  "key": {"[1]": {"details": "0 mol % NMM added, 40° C., 3 hours storage test, FIG. 2"}},
  "data": [
    {"smiles": "CC(C)(C)OP(=O)(OCCl)OC(C)(C)C", "note": "[di-tert-butyl chlorophosphate, di-tert-butyl chloromethyl phosphate]", "values": [
      {"measurement": "amount of remaining di-tert-butyl chlorophosphate", "setting": "[1]", "value": 34, "unit": "%"},
      {"measurement": "initial di-tert-butyl chlorophosphate decomposed", "setting": "[1]", "value": 66, "unit": "%"},
      {"measurement": "amount of di-tert-butyl chlorophosphate remaining", "setting": "1 mol % NMM added, 40° C., 3 hours storage test", "value": 34, "unit": "%"},
      {"measurement": "amount of di-tert-butyl chlorophosphate remaining", "setting": "2.5 mol % NMM added, 40° C., 3 hours storage test", "value": 88, "unit": "%"},
      {"measurement": "decomposition of di-tert-butyl chlorophosphate on storage", "setting": "5 mol % NMM added, 40° C., 3 hours storage test, FIG. 2", "value": "not observed"},
      {"measurement": "decomposition of di-tert-butyl chlorophosphate on storage", "setting": "5 mol % NMM added, stored at 40° C. for 3 hr or 6 hr, FIG. 1", "value": "no decomposition"},
      {"measurement": "decomposition of di-tert-butyl chlorophosphate on storage", "setting": "5 mol % iPr2EtN added, stored at 40° C. for 3 hr or 6 hr, FIG. 1", "value": "no decomposition"},
      {"measurement": "decomposition of di-tert-butyl chlorophosphate on storage", "setting": "10 mol % NMM added, storage at room temperature for 1.5 days", "value": "no decomposition"}
    ]}
  ]
}
